Laboratory results published in patent US9260417B2, “Therapeutic methods and compositions involving allosteric kinase inhibition” (AMITECH THERAPEUTIC SOLUTIONS, INC., priority 2010, dated 2016).

Assays:
AKT1 = AKT1 (Homo sapiens (Human), UniProt P31749); assay: In vitro kinase panel (SelectScreen); format: biochemical
Text: (§1) In vitro kinase screen and competitive binding assay. Sorafenib as well as test compounds were submitted to Invitrogen and screened using their SelectScreen™ Profiling Service.

CDK2 = CDK2 (Homo sapiens (Human), UniProt P24941); assay: In vitro kinase panel (SelectScreen); format: biochemical
Text: as §1

CK2 alpha 1 = CK2 alpha 1 (Homo sapiens (Human), UniProt P68400); assay: In vitro kinase panel (SelectScreen); format: biochemical
Text: as §1

CRAF Y340D Y341D = CRAF Y340D Y341D (Homo sapiens (Human), UniProt P04049, Y340D/Y341D); assay: In vitro kinase panel (SelectScreen); format: biochemical
Text: as §1

ERK1 = ERK1 (Homo sapiens (Human), UniProt P27361); assay: In vitro kinase panel (SelectScreen); format: biochemical
Text: as §1

ERK2 = ERK2 (Homo sapiens (Human), UniProt P28482); assay: In vitro kinase panel (SelectScreen); format: biochemical
Text: as §1

FAK2 = FAK2 (Homo sapiens (Human), UniProt Q14289); assay: In vitro kinase panel (SelectScreen); format: biochemical
Text: as §1

FGFR1 = FGFR1 (Homo sapiens (Human), UniProt P11362); assay: In vitro kinase panel (SelectScreen); format: biochemical
Text: as §1

FGFR2 = FGFR2 (Homo sapiens (Human), UniProt P21802); assay: In vitro kinase panel (SelectScreen); format: biochemical
Text: as §1

FGFR3 = FGFR3 (Homo sapiens (Human), UniProt P22607); assay: In vitro kinase panel (SelectScreen); format: biochemical
Text: as §1

FGFR3 K650E = FGFR3 K650E (Homo sapiens (Human), UniProt P22607, K650E); assay: In vitro kinase panel (SelectScreen); format: biochemical
Text: as §1

FGFR4 = FGFR4 (Homo sapiens (Human), UniProt P22455); assay: In vitro kinase panel (SelectScreen); format: biochemical
Text: as §1

FLT1 (VEGFR1) = FLT1 (VEGFR1) (Homo sapiens (Human), UniProt P17948); assay: In vitro kinase panel (SelectScreen); format: biochemical
Text: as §1

IGF1R = IGF1R (Homo sapiens (Human), UniProt P08069); assay: In vitro kinase panel (SelectScreen); format: biochemical
Text: as §1

JNK1 = JNK1 (Homo sapiens (Human), UniProt P45983); assay: In vitro kinase panel (SelectScreen); format: biochemical
Text: as §1

JNK2 = JNK2 (Homo sapiens (Human), UniProt P45984); assay: In vitro kinase panel (SelectScreen); format: biochemical
Text: as §1

JNK3 = JNK3 (Homo sapiens (Human), UniProt P53779); assay: In vitro kinase panel (SelectScreen); format: biochemical
Text: as §1

KIT = KIT (Homo sapiens (Human), UniProt P10721); assay: In vitro kinase panel (SelectScreen); format: biochemical
Text: as §1

MAPKAPK2 = MAPKAPK2 (Homo sapiens (Human), UniProt P49137); assay: In vitro kinase panel (SelectScreen); format: biochemical; settings: 10 μM; MAPKAPK2
Text: as §1

MEK1 = MEK1 (Homo sapiens (Human), UniProt Q02750); assay: In vitro kinase panel (SelectScreen); format: biochemical
Text: as §1

MEK2 = MEK2 (Homo sapiens (Human), UniProt P36507); assay: In vitro kinase panel (SelectScreen); format: biochemical
Text: as §1

MET (cMet) = MET (cMet) (Homo sapiens (Human), UniProt P08581); assay: In vitro kinase panel (SelectScreen); format: biochemical
Text: as §1

MET M1250T = MET M1250T (Homo sapiens (Human), UniProt P08581, M1250T); assay: In vitro kinase panel (SelectScreen); format: biochemical
Text: as §1

PAK2 = PAK2 (Homo sapiens (Human), UniProt Q13177); assay: In vitro kinase panel (SelectScreen); format: biochemical
Text: as §1

PDGFR beta = PDGFR beta (Homo sapiens (Human), UniProt P09619); assay: In vitro kinase panel (SelectScreen); format: biochemical
Text: as §1

PKC alpha = PKC alpha (Homo sapiens (Human), UniProt P17252); assay: In vitro kinase panel (SelectScreen); format: biochemical
Text: as §1

PKC beta I = PKC beta I (Homo sapiens (Human), UniProt P05771); assay: In vitro kinase panel (SelectScreen); format: biochemical
Text: as §1

PKC beta II = PKC beta II (Homo sapiens (Human), UniProt P05771); assay: In vitro kinase panel (SelectScreen); format: biochemical
Text: as §1

PKC delta = PKC delta (Homo sapiens (Human), UniProt Q05655); assay: In vitro kinase panel (SelectScreen); format: biochemical
Text: as §1

PKC epsilon = PKC epsilon (Homo sapiens (Human), UniProt Q02156); assay: In vitro kinase panel (SelectScreen); format: biochemical
Text: as §1

PKC eta = PKC eta (Homo sapiens (Human), UniProt P24723); assay: In vitro kinase panel (SelectScreen); format: biochemical
Text: as §1

PKC gamma = PKC gamma (Homo sapiens (Human), UniProt P05129); assay: In vitro kinase panel (SelectScreen); format: biochemical
Text: as §1

PKC iota = PKC iota (Homo sapiens (Human), UniProt P41743); assay: In vitro kinase panel (SelectScreen); format: biochemical
Text: as §1

FLT3 = FLT3 (Homo sapiens (Human), UniProt P36888); assay: In vitro kinase panel (SelectScreen); format: biochemical
Experimental: (§2) In vitro kinase screen and competitive binding assay. […] 11-point Kd curves were determined for hits identified during the initial screen.

FLT3 D835Y = FLT3 D835Y (Homo sapiens (Human), UniProt P36888, D835Y); assay: In vitro kinase panel (SelectScreen); format: biochemical
Experimental: as §2

HUVECs = assay: XTT viability assay in HUVECs; format: cell-based, human; settings: HUVECs, 72 h, full growth medium containing 10% FBS; read-out: EC50, endothelial cell viability
Experimental: FIG. 1A-1F illustrate molecular modeling and assay screening to compounds for dual targeting of PDGFRβ and RAF. (FIG. 1A) Molecular modeling of the amino-triazole based small molecules in PDGFRβ and RAF, respectively. […] A homology model of PDGFRβ was created with a structurally-related family member (VEGFR2, PDB 1y6b). […] To autophosphorylation, immunoblots were carried out with a phospho-tyrosine antibody. Membranes were stripped and reprobed for total PDGFRβ levels. […] (FIG. 1D) Structure activity relationships of the amino-triazole based small molecules comparing both PDGFRβ and B-RAF. […] Curves represent the average of 3 separate experiments, error bars represent ±SEM.
For XTT assays, cells were grown in 96-well plates overnight and all assays were conducted in growth medium will full serum and additives. […] Dose-response curves were plotted using GraphPad Prism software and EC50s were calculated using this program.

Chain of ERK1 (P27361 whole entry): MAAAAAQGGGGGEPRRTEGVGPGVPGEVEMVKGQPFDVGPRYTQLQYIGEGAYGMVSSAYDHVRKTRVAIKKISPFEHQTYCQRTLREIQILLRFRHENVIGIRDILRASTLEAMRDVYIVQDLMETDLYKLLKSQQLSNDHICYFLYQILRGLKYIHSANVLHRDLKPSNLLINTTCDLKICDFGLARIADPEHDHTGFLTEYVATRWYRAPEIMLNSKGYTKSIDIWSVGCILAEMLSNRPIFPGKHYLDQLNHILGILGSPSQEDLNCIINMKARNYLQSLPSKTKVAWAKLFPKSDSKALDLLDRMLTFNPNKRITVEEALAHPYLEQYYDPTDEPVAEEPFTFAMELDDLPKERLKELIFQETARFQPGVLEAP
Chain of CK2 alpha 1 (P68400 whole entry): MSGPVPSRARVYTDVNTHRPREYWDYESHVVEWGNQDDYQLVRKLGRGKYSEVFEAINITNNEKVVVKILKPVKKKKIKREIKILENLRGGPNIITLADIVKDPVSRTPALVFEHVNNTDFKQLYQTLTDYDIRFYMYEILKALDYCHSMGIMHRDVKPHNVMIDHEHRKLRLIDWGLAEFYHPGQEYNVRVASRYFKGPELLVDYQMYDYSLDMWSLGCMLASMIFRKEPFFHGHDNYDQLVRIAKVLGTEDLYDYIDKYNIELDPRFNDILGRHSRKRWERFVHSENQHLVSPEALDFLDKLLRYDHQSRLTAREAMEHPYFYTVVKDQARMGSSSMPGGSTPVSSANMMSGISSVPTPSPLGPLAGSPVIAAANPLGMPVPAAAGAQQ
Chain of FGFR3 K650E (P22607 23-806 K650E): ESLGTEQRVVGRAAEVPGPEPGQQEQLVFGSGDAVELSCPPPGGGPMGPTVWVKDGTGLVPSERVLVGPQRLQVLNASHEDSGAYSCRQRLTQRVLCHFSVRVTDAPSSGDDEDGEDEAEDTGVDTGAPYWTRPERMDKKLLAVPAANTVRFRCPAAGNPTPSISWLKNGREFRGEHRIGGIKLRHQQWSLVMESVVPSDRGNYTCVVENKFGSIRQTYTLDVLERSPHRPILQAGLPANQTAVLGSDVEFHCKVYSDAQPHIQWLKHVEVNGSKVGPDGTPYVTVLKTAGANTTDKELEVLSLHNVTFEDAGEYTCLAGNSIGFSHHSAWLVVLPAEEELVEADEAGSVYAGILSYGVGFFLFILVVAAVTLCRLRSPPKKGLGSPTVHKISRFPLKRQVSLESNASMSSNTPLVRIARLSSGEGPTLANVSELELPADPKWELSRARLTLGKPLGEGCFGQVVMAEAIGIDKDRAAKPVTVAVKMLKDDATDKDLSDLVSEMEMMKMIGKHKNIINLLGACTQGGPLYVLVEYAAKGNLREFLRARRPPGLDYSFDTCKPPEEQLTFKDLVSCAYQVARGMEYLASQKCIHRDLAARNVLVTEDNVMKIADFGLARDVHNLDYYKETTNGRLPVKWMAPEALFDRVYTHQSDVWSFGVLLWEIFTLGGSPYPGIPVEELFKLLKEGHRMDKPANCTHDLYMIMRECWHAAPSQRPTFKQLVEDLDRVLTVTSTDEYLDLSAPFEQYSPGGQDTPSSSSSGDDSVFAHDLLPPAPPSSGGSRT
Chain of PKC iota (P41743 whole entry): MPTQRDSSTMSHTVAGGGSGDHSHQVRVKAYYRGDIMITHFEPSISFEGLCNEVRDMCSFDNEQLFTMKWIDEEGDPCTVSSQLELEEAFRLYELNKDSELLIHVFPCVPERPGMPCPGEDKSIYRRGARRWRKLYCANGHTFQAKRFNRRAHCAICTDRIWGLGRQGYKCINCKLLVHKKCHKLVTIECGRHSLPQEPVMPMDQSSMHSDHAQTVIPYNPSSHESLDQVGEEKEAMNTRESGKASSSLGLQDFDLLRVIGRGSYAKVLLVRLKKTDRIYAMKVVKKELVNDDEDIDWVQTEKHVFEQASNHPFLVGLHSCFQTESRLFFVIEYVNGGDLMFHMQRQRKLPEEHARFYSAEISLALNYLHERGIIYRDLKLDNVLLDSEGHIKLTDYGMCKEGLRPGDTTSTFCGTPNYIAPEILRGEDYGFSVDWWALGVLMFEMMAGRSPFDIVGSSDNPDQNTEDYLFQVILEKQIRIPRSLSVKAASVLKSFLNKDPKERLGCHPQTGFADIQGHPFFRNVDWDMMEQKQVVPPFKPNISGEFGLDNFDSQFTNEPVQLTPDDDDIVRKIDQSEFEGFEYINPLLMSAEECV
Chain of IGF1R (P08069 31-1367): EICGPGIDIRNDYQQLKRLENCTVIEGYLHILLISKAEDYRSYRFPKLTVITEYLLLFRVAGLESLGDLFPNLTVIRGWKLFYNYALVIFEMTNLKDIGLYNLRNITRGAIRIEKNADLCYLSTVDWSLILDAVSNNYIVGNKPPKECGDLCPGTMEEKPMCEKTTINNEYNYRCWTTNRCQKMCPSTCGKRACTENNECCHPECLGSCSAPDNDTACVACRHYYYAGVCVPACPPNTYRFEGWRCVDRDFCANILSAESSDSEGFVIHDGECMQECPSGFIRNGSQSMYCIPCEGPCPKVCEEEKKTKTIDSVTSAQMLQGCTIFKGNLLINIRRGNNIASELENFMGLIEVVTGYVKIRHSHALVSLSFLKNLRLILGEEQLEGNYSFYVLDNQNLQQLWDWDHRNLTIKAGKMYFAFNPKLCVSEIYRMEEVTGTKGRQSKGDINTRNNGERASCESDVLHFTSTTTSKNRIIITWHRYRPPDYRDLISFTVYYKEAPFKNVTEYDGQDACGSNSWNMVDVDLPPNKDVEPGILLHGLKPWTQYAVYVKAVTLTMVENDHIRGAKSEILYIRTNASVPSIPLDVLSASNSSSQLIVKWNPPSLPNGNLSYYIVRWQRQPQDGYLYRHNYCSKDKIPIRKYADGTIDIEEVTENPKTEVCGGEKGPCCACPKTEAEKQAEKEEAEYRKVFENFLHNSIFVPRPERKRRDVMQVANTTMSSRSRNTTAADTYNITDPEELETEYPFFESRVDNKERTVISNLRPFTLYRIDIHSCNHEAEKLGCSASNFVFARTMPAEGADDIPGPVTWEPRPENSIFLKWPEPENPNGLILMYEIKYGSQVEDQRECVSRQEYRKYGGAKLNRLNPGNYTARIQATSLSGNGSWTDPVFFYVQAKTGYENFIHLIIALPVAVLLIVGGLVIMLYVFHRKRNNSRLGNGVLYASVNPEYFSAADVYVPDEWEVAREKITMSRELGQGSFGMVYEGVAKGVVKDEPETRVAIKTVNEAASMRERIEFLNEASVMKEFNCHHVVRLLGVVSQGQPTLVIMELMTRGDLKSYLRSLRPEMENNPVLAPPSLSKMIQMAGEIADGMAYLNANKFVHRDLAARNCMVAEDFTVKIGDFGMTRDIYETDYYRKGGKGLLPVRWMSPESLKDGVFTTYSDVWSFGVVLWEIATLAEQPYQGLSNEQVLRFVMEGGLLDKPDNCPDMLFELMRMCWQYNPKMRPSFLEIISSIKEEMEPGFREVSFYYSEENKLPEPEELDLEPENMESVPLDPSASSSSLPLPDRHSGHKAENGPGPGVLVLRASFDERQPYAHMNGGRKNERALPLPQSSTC
Chain of PKC beta II (P05771 other isoform, or with tags, fused parts or gaps): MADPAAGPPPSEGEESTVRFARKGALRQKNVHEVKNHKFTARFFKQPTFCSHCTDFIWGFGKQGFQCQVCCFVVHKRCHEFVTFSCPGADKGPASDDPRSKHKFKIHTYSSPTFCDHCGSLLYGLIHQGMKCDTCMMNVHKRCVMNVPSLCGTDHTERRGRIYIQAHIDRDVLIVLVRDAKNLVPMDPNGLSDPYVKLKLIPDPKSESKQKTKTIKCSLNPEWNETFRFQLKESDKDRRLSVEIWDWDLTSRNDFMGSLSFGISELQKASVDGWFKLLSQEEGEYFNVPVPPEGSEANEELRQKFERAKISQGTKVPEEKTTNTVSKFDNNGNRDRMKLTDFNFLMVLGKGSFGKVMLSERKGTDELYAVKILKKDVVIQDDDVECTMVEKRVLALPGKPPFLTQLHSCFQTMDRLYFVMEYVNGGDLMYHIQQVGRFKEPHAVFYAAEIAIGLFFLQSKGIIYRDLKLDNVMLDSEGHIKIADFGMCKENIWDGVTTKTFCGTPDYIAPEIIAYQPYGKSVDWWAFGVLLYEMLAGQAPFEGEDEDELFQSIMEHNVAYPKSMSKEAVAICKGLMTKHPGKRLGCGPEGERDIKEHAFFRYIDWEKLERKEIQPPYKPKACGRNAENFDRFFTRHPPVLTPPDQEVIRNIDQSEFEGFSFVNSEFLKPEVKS
Chain of PAK2 (Q13177 whole entry): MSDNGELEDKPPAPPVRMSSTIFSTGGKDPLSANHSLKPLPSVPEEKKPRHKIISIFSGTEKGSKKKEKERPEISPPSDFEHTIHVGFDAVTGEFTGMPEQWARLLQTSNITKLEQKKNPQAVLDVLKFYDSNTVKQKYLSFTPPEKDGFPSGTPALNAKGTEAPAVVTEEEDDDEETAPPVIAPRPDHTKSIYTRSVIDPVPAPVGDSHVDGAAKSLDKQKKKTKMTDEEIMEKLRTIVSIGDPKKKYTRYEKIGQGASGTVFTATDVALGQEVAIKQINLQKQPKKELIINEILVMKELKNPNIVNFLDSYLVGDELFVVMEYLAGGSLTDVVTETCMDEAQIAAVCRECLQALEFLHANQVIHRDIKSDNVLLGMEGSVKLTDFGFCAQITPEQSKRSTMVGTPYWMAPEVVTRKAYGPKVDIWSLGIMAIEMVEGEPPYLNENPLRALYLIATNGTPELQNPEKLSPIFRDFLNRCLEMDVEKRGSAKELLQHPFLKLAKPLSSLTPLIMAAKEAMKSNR
Chain of ERK2 (P28482 whole entry): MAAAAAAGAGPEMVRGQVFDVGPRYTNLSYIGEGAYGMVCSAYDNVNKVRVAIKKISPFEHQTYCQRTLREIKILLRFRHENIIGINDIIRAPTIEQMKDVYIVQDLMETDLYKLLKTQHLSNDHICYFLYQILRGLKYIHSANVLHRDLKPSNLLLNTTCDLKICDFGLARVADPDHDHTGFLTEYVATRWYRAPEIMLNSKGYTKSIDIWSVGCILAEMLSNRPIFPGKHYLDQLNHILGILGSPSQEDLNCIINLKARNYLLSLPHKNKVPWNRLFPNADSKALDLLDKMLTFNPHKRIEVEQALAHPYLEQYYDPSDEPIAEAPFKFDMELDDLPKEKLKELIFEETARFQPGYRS

## Nc1cc(Oc2ccc(-c3nnc(Nc4cccc(C(F)(F)F)c4)[nH]3)cc2)ncn1 [Compound 3]
AKT1
  % Inhibition at 10 μM: 1%
CDK2
  % Inhibition at 10 μM: 2%
CK2 alpha 1
  % Inhibition at 10 μM: −3%
CRAF Y340D Y341D
  % Inhibition at 10 μM: 38%
ERK1
  % Inhibition at 10 μM: 1%
ERK2
  % Inhibition at 10 μM: −4%
FAK2
  % Inhibition at 10 μM: −4%
FGFR1
  % Inhibition at 10 μM: 9%
FGFR2
  % Inhibition at 10 μM: −1%
FGFR3
  % Inhibition at 10 μM: −12%
FGFR3 K650E
  % Inhibition at 10 μM: 4%
FGFR4
  % Inhibition at 10 μM: −6%
FLT1 (VEGFR1)
  % Inhibition at 10 μM: 5%
IGF1R
  % Inhibition at 10 μM: −4%
JNK1
  % Inhibition at 10 μM: −5%
JNK2
  % Inhibition at 10 μM: −7%
JNK3
  % Inhibition at 10 μM: −8%
KIT
  % Inhibition at 10 μM: 74%
MAPKAPK2
  % Inhibition at 10 μM: 1%
MEK1
  % Inhibition at 10 μM: −5%
MEK2
  % Inhibition at 10 μM: −8%
MET (cMet)
  % Inhibition at 10 μM: 7%
MET M1250T
  % Inhibition at 10 μM: 4%
PAK2
  % Inhibition at 10 μM: 2%
PDGFR beta
  % Inhibition at 10 μM: 35%
PKC alpha
  % Inhibition at 10 μM: −5%
PKC beta I
  % Inhibition at 10 μM: −3%
PKC beta II
  % Inhibition at 10 μM: −3%
PKC delta
  % Inhibition at 10 μM: −1%
PKC epsilon
  % Inhibition at 10 μM: −3%
PKC eta
  % Inhibition at 10 μM: 1%
PKC gamma
  % Inhibition at 10 μM: 6%
PKC iota
  % Inhibition at 10 μM: −2%
FLT3
  % Inhibition at 10 μM: −4%
FLT3 D835Y
  % Inhibition at 10 μM: 29%
HUVECs
  EC50: 18 µM
